In PubChem BioAssay (NCI):
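Five concentrations, 48 hours, 96-well plates. Here, GI50 denotes the concentration required for 50% inhibition of growth. TGI is the concentration that stops growth completely.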

Legend:
Assay in all cases: inhibition of tumour cell growth, NCI panel, 48 h
786-0 renal = test system: 786-0 renal
A498 renal = test system: A498 renal
A549 NSCLC = test system: A549 NSCLC
ACHN renal = test system: ACHN renal
BT-549 breast = test system: BT-549 breast
CCRF-CEM leukemia = test system: CCRF-CEM leukemia
COLO 205 colon = test system: COLO 205 colon
DU-145 prostate = test system: DU-145 prostate
EKVX NSCLC = test system: EKVX NSCLC
HCC-2998 colon = test system: HCC-2998 colon
HCT-116 colon = test system: HCT-116 colon
HCT-15 colon = test system: HCT-15 colon
HL-60(TB) leukemia = test system: HL-60(TB) leukemia
HOP-62 NSCLC = test system: HOP-62 NSCLC
HOP-92 NSCLC = test system: HOP-92 NSCLC
HS 578T breast = test system: HS 578T breast
HT29 colon = test system: HT29 colon
IGROV1 ovarian = test system: IGROV1 ovarian
KM12 colon = test system: KM12 colon
LOX IMVI melanoma = test system: LOX IMVI melanoma
M14 melanoma = test system: M14 melanoma
MALME-3M melanoma = test system: MALME-3M melanoma
MCF7 breast = test system: MCF7 breast
MDA-MB-231 breast = test system: MDA-MB-231 breast
MDA-MB-435 = test system: MDA-MB-435
MOLT-4 leukemia = test system: MOLT-4 leukemia
NCI-H226 lung = test system: NCI-H226 lung
NCI-H23 lung = test system: NCI-H23 lung
NCI-H460 lung = test system: NCI-H460 lung
NCI-H522 lung = test system: NCI-H522 lung
NCI/ADR-RES ovarian = test system: NCI/ADR-RES ovarian
OVCAR-3 ovarian = test system: OVCAR-3 ovarian
OVCAR-4 ovarian = test system: OVCAR-4 ovarian
OVCAR-5 ovarian = test system: OVCAR-5 ovarian
OVCAR-8 ovarian = test system: OVCAR-8 ovarian
PC-3 prostate = test system: PC-3 prostate
RPMI-8226 leukemia = test system: RPMI-8226 leukemia
RXF 393 renal = test system: RXF 393 renal
SF-268 CNS = test system: SF-268 CNS
SF-295 CNS = test system: SF-295 CNS
SF-539 CNS = test system: SF-539 CNS
SK-MEL-2 melanoma = test system: SK-MEL-2 melanoma
SK-MEL-28 melanoma = test system: SK-MEL-28 melanoma
SK-MEL-5 melanoma = test system: SK-MEL-5 melanoma
SK-OV-3 ovarian = test system: SK-OV-3 ovarian
SN12C renal = test system: SN12C renal
SNB-19 CNS = test system: SNB-19 CNS
SNB-75 CNS = test system: SNB-75 CNS
SR leukemia = test system: SR leukemia
SW-620 colon = test system: SW-620 colon
T-47D breast = test system: T-47D breast
TK-10 renal = test system: TK-10 renal
U251 CNS = test system: U251 CNS
UACC-257 melanoma = test system: UACC-257 melanoma
UACC-62 melanoma = test system: UACC-62 melanoma
UO-31 renal = test system: UO-31 renal
CAKI-1 renal = test system: CAKI-1 renal
K-562 leukemia = test system: K-562 leukemia
MDA-N = test system: MDA-N

With `CC(=O)/C=C/c1ccc(N(C)Cc2ccc(C(C)(C)C)cc2)cc1` the GI50 (786-0 renal) was 155 µM, the TGI (786-0 renal) was 338 µM and the GI50 (A498 renal) was 124 µM. It also gave a TGI (A498 renal) of 251 µM, a GI50 (A549 NSCLC) of 156 µM and a TGI (A549 NSCLC) of 788 µM. It also gave a GI50 (ACHN renal) of 137 µM, a TGI (ACHN renal) of 271 µM and a GI50 (BT-549 breast) of 133 µM. For the same compound, the TGI (BT-549 breast) was 277 µM, the GI50 (CCRF-CEM leukemia) was 164 µM and the TGI (CCRF-CEM leukemia) was 903 µM. It also gave a GI50 (COLO 205 colon) of 95.1 µM, a TGI (COLO 205 colon) of 275 µM and a GI50 (DU-145 prostate) of 147 µM. The TGI (DU-145 prostate) was 472 µM, the GI50 (EKVX NSCLC) was 84.4 µM and the TGI (EKVX NSCLC) was 392 µM. For the same compound, the GI50 (HCC-2998 colon) was 149 µM, the TGI (HCC-2998 colon) was 340 µM and the GI50 (HCT-116 colon) was 80.6 µM. It also gave a TGI (HCT-116 colon) of 290 µM, a GI50 (HCT-15 colon) of 89.7 µM and a TGI (HCT-15 colon) of 327 µM. For the same compound, the GI50 (HL-60(TB) leukemia) was 69.1 µM, the TGI (HL-60(TB) leukemia) was 277 µM and the GI50 (HOP-62 NSCLC) was 194 µM. It also gave a TGI (HOP-62 NSCLC) of 550 µM, a GI50 (HOP-92 NSCLC) of 129 µM and a TGI (HOP-92 NSCLC) of 267 µM. For the same compound, the GI50 (HS 578T breast) was 193 µM, the TGI (HS 578T breast) was 568 µM and the GI50 (HT29 colon) was 58.4 µM. It also gave a GI50 (IGROV1 ovarian) of 241 µM, a GI50 (KM12 colon) of 115 µM and a TGI (KM12 colon) of 317 µM. It also gave a GI50 (LOX IMVI melanoma) of 78.2 µM, a TGI (LOX IMVI melanoma) of 208 µM and a GI50 (M14 melanoma) of 132 µM. The TGI (M14 melanoma) was 321 µM, the GI50 (MALME-3M melanoma) was 138 µM and the TGI (MALME-3M melanoma) was 284 µM. It also gave a GI50 (MCF7 breast) of 45.5 µM, a TGI (MCF7 breast) of 318 µM and a GI50 (MDA-MB-231 breast) of 122 µM. For the same compound, the TGI (MDA-MB-231 breast) was 293 µM, the GI50 (MDA-MB-435) was 114 µM and the TGI (MDA-MB-435) was 322 µM. The GI50 (MOLT-4 leukemia) was 116 µM, the TGI (MOLT-4 leukemia) was 425 µM and the GI50 (NCI-H226 lung) was 149 µM. It also gave a TGI (NCI-H226 lung) of 315 µM, a GI50 (NCI-H23 lung) of 87.4 µM and a TGI (NCI-H23 lung) of 550 µM. It also gave a GI50 (NCI-H460 lung) of 144 µM, a TGI (NCI-H460 lung) of 376 µM and a GI50 (NCI-H522 lung) of 128 µM. It also gave a TGI (NCI-H522 lung) of 310 µM, a GI50 (NCI/ADR-RES ovarian) of 114 µM and a TGI (NCI/ADR-RES ovarian) of 271 µM. It also gave a GI50 (OVCAR-3 ovarian) of 126 µM, a TGI (OVCAR-3 ovarian) of 264 µM and a GI50 (OVCAR-4 ovarian) of 125 µM. The TGI (OVCAR-4 ovarian) was 330 µM, the GI50 (OVCAR-5 ovarian) was 195 µM and the TGI (OVCAR-5 ovarian) was 490 µM. For the same compound, the GI50 (OVCAR-8 ovarian) was 148 µM, the TGI (OVCAR-8 ovarian) was 516 µM and the GI50 (PC-3 prostate) was 97.2 µM. For the same compound, the TGI (PC-3 prostate) was 465 µM, the GI50 (RPMI-8226 leukemia) was 53.9 µM and the TGI (RPMI-8226 leukemia) was 237 µM. It also gave a GI50 (RXF 393 renal) of 131 µM, a TGI (RXF 393 renal) of 272 µM and a GI50 (SF-268 CNS) of 143 µM. It also gave a TGI (SF-268 CNS) of 332 µM, a GI50 (SF-295 CNS) of 162 µM and a TGI (SF-295 CNS) of 576 µM. The GI50 (SF-539 CNS) was 161 µM, the TGI (SF-539 CNS) was 316 µM and the GI50 (SK-MEL-2 melanoma) was 164 µM. For the same compound, the TGI (SK-MEL-2 melanoma) was 344 µM, the GI50 (SK-MEL-28 melanoma) was 134 µM and the TGI (SK-MEL-28 melanoma) was 279 µM. It also gave a GI50 (SK-MEL-5 melanoma) of 55.1 µM, a TGI (SK-MEL-5 melanoma) of 184 µM and a GI50 (SK-OV-3 ovarian) of 217 µM. The TGI (SK-OV-3 ovarian) was 709 µM, the GI50 (SN12C renal) was 141 µM and the TGI (SN12C renal) was 300 µM. The GI50 (SNB-19 CNS) was 218 µM, the TGI (SNB-19 CNS) was 699 µM and the GI50 (SNB-75 CNS) was 145 µM. The TGI (SNB-75 CNS) was 345 µM, the GI50 (SR leukemia) was 137 µM and the TGI (SR leukemia) was 499 µM. The GI50 (SW-620 colon) was 156 µM, the TGI (SW-620 colon) was 441 µM and the GI50 (T-47D breast) was 47.8 µM. For the same compound, the TGI (T-47D breast) was 405 µM, the GI50 (TK-10 renal) was 348 µM and the TGI (TK-10 renal) was 890 µM. It also gave a GI50 (U251 CNS) of 125 µM, a TGI (U251 CNS) of 268 µM and a GI50 (UACC-257 melanoma) of 143 µM. It also gave a TGI (UACC-257 melanoma) of 335 µM, a GI50 (UACC-62 melanoma) of 113 µM and a TGI (UACC-62 melanoma) of 255 µM. For the same compound, the GI50 (UO-31 renal) was 83.2 µM and the TGI (UO-31 renal) was 212 µM.

In the case of `Cc1ccccc1Nc1cn(CCOc2ccccc2)c(=O)n(CCOc2ccccc2)c1=O`, the TGI (786-0 renal) is reported as over 100 µM, the TGI (A498 renal) is reported as over 100 µM and the TGI (A549 NSCLC) is reported as over 100 µM. The TGI (ACHN renal) was over 100 µM, the TGI (BT-549 breast) was over 100 µM and the TGI (CAKI-1 renal) was over 100 µM. It also gave a TGI (CCRF-CEM leukemia) of over 100 µM, a TGI (COLO 205 colon) of over 100 µM and a TGI (DU-145 prostate) of over 100 µM. For the same compound, the TGI (EKVX NSCLC) was over 100 µM, the TGI (HCC-2998 colon) was over 100 µM and the TGI (HCT-116 colon) was over 100 µM. For the same compound, the TGI (HCT-15 colon) was over 100 µM, the TGI (HL-60(TB) leukemia) was over 100 µM and the TGI (HOP-62 NSCLC) was over 100 µM. It also gave a TGI (HOP-92 NSCLC) of over 100 µM, a TGI (HS 578T breast) of over 100 µM and a TGI (HT29 colon) of over 100 µM. For the same compound, the TGI (IGROV1 ovarian) was over 100 µM, the TGI (K-562 leukemia) was over 100 µM and the TGI (KM12 colon) was over 100 µM. For the same compound, the TGI (LOX IMVI melanoma) was over 100 µM, the TGI (M14 melanoma) was over 100 µM and the TGI (MALME-3M melanoma) was 63.7 µM. It also gave a TGI (MCF7 breast) of over 100 µM, a TGI (MDA-MB-435) of over 100 µM and a TGI (MDA-N) of over 100 µM. For the same compound, the TGI (MOLT-4 leukemia) was over 100 µM, the TGI (NCI-H23 lung) was over 100 µM and the TGI (NCI-H460 lung) was over 100 µM. It also gave a TGI (NCI-H522 lung) of over 100 µM, a TGI (NCI/ADR-RES ovarian) of over 100 µM and a TGI (OVCAR-3 ovarian) of over 100 µM. For the same compound, the TGI (OVCAR-4 ovarian) was over 100 µM, the TGI (OVCAR-5 ovarian) was over 100 µM and the TGI (PC-3 prostate) was over 100 µM. The TGI (RPMI-8226 leukemia) was over 100 µM, the TGI (RXF 393 renal) was over 100 µM and the TGI (SF-268 CNS) was over 100 µM. For the same compound, the TGI (SF-295 CNS) was over 100 µM, the TGI (SK-MEL-28 melanoma) was over 100 µM and the TGI (SK-MEL-5 melanoma) was over 100 µM. It also gave a TGI (SN12C renal) of over 100 µM, a TGI (SW-620 colon) of over 100 µM and a TGI (U251 CNS) of over 100 µM. The TGI (UACC-257 melanoma) was over 100 µM, the TGI (UACC-62 melanoma) was over 100 µM and the TGI (UO-31 renal) was over 100 µM.
